Tests used:
HCT-116 [1] = test: Cell cycle arrest in human HCT116 cells assessed as accumulation at sub-G1 phase at 20 uM after 48 hrs by flow cytometry (Rvb =7.90 %); type: functional
HCT-116 [2] = test: Cell cycle arrest in human HCT116 cells assessed as accumulation at S phase at 20 uM after 48 hrs by flow cytometry (Rvb =21.16 %); type: functional
HCT-116 [3] = test: Antiproliferative activity against human HCT116 assessed as growth inhibition after 24 to 48 hrs by WST-8 assay; type: functional, cell-based
HCT-116 [4] = test: Cell cycle arrest in human HCT116 cells assessed as accumulation at G1 phase at 20 uM after 48 hrs by flow cytometry (Rvb =45.27 %); type: functional
HCT-116 [5] = test: Inhibition of human HCT116 clonogenicity after 7 days by crystal violet staining by densitometric analysis; type: functional
HCT-116 [6] = test: Cell cycle arrest in human HCT116 cells assessed as accumulation at G2/M phase at 20 uM after 48 hrs by flow cytometry (Rvb =23.23 %); type: functional
HCT-116 [7] = test: Antiproliferative activity against human HCT116 assessed as growth inhibition at 5 to 40 uM hrs by WST-8 assay; type: functional, cell-based; conditions: TDE = time-dependent effect

Row | SMILES | inhibition (INH) (HCT-116 [5]) | also measured
1 | COc1cc2occ(-c3ccccc3)c(=O)c2cc1OC | 91.3% | Activity (HCT-116 [1]): 21.34%; Activity (HCT-116 [2]): 14.97%; growth inhibition (GI) (HCT-116 [3]): Dose-dependent effect; Activity (HCT-116 [4]): 47.46%; Activity (HCT-116 [6]): 14.34%; growth inhibition (GI) (HCT-116 [7]): tde
2 | Cc1c(O)ccc2c(=O)c(-c3ccccc3)coc12 | 27.7% | 
3 | COc1cc(OC)c2c(=O)c(-c3cccc(Cl)c3)coc2c1 | 82.7% | 
4 | COc1ccc(-c2coc3c(C)c(OC)ccc3c2=O)cc1 | 52.7% | 
5 | O=c1c(-c2ccc(O)cc2)coc2c(O)c(O)ccc12 | 64% | 
6 | Cc1c(O)ccc2c(=O)c(-c3ccc(Cl)cc3)coc12 | 46.3% | 
7 | COc1ccc2c(=O)c(-c3ccc(Cl)cc3)coc2c1C | 58.3% | 
8 | COc1ccc2c(=O)c(-c3ccccc3)coc2c1C | 54% | 
9 | COc1cc2c(=O)c(-c3ccccc3)coc2cc1O | 37.3% | 
10 | Cc1cc2occ(-c3ccc(Cl)cc3Cl)c(=O)c2cc1Cl | 12.7% | 
11 | COc1ccc2c(=O)c(-c3ccc(OC)c(OC)c3)coc2c1 | 35.7% | 
12 | COc1ccc2c(=O)c(-c3ccccc3)coc2c1 | 42% | 
13 | COc1ccc(-c2coc3c(OC)c(OC)ccc3c2=O)cc1 | 70% | 
14 | COc1cc(O)c2c(=O)c(-c3ccc(O)cc3)coc2c1 [PRUNETIN] | 74% | 
15 | COc1cc(OC)c2c(=O)c(-c3ccc(Br)cc3)coc2c1 | 13.7% | 
16 | COc1cc(C)c2c(=O)c(-c3ccccc3)coc2c1 | 55.3% | 
17 | COc1cc(OC)c2c(=O)c(-c3ccccc3Cl)coc2c1 | 63.3% | 
18 | COc1ccc(-c2coc3cc(O)c(OC)cc3c2=O)cc1 [CASTANIN] | 4.3% | 
19 | COc1cc2occ(-c3ccccc3Cl)c(=O)c2cc1Cl | 5.3% | 
20 | COc1ccc(-c2coc3cc(OC)c(OC)cc3c2=O)cc1OC | 85.3% | 
21 | COc1cc(OC)c2c(=O)c(-c3ccc(Cl)cc3)coc2c1 | 71.3% | 
22 | COc1cc(OC)c2c(=O)c(-c3ccc(OC)c(OC)c3)coc2c1 | 22.3% | 
23 | COc1cc2c(=O)c(-c3ccc(OC(C)=O)cc3)coc2cc1O | 26.7% | 
